“And” between values parts separate entries of the source, which are not always exact repeats. Identical values can stand only once. No end group written: not given here.
Test system: SIINFEKL-pulsed target cells
Assay: 51Cr-release CTL assay after immunization of mice
Assay type: in vivo
Details: Example 14; SIINFEKL-pulsed target cells
Experimental: Mice were immunized s.c. at the base of the tail with the complexes listed above—[…] (SEQ ID NO:359) alone was added at a five-fold molar excess of the […] (SEQ ID NO:358) dose. 7 d later, spleens were harvested and stimulated in vitro with […] (SEQ ID NO:357) peptide. Values within bars represent the amount of epitope delivered. 100:1 E:T ratio shown.
In the same experiment, a ^51Cr-release assay as described above was done using […]-pulsed target cells. At an effector to target cell ratio of 200:1, the percent killing results obtained are shown in the far right column of the following table.

Substance	CTL assay: % killing at 200:1 E/T [%]
Hsp70: recombinant human heat shock protein 70	0

Same assay, conditions: Example 16; SIINFEKL-pulsed target cells

Substance	CTL assay: % killing at 200:1 E/T [%]
Hsp70: recombinant human heat shock protein 70	8.45

Same assay, conditions: binding domain peptide alone added at five-fold molar excess

Substance	effect on induction of an immune response by HSP70: SIINFEKLGSGHWDFAWPW mixture
NLLRLTGW	prevent induction of an immune response

Test system: γ-interferon-secreting CD8+ cells
Assay: γ-interferon-secreting CD8+ cells after immunization of mice and in vitro restimulation with […]
Assay type: in vivo
Details: mice immunized day 0, splenocytes day 7, restimulated 5 days; FIG. 1
Experimental: Non-covalent complexes of recombinant human heat shock protein 70 and hybrid antigens of the invention were evaluated for biological activity in vivo. To evaluate the induction of an antigen-specific immune response, mice were immunized on day 0 with one of the following: (1) 100 μg human hsp70; (2) a noncovalent complex of 100 μg hsp70 and 15 μg […] (SEQ ID NO:357) (OVA peptide); (3) a noncovalent complex of 100 μg hsp70 and 15 μg […] (SEQ ID NO:368) (N-terminal OVA peptide, C-terminal heat shock protein binding domain […] (SEQ ID NO:358), GSG linker in between); and (4) a noncovalent complex of […] and 15 μg […] (SEQ ID NO:367) (N-terminal OVA peptide, C-terminal heat shock protein binding domain […] (SEQ ID NO:359), GSG linker in between).
On day 7, splenocytes were obtained from the immunized animals and were restimulated with peptide ([…]) (SEQ ID NO:357) in vitro for 5 days, after which the percent of γ-interferon-secreting CD8+ cells was determined.

Substance	immune response: percent of γ-interferon-secreting CD8+ cells
Hsp70: recombinant human heat shock protein 70	low level of response

Test system: CD8+ T cells
Assay: not given
Design: species or system mice
Details: mouse, in vivo

Substance	Number of Spots, Con A Positive control	Number of Spots, Con A positive control	Number of Spots, Medium control	Number of Spots, SIINFEKL	Number of spots, Con A positive control	Number of spots, Medium control	Number of spots, SIINFEKL	Number of spots, Unpulsed control	Number of spots, VSV control
Hsp70: recombinant human heat shock protein 70	965	834	1.50 and 1.00	0.33	552 spots per 300,000 CD8 T cells	0.00 spots per 300,000 CD8 T cells	0.67 spots per 300,000 CD8 T cells	0.50 spots per 300,000 CD8 T cells	1.00 spots per 300,000 CD8 T cells

Same assay, conditions: mouse, in vivo, sc

Substance	Number of Spots, SIINFEKL
Hsp70: recombinant human heat shock protein 70	0.00

Test system: recombinant human or murine heat shock protein 70 (hsp70)
Assay: not given
Assay type: binding
Details: not given

Substance	increase in affinity for HSP70 (lower dissociation constant) over SIINFEKLGSGHWDFAWPW [fold]
SIINFEKLgsgNLLRLTGW (SIINFEKLGSGNLLRLTGW; not fully specified; printed as SIINFEKLgsgNLLRLTGW) [OVA + NLLRLTGW]	15

Same assay, conditions: pH 8; read-out: Kd, peptide (epitope), heat shock protein-binding domain: None

Substance	Kd [µM]
TLGIVCPI [HPV16 E7 (86-93), reference compound]	187
ALFDIESKV [PSMA P2, reference compound]	145
YMLDLQPETT [HPV16 E7 (11-20), reference compound]	91
IMDQVPFSV [Gp100 (“IMD”), reference compound]	2560
SIINFEKL [OVA, reference compound]	279
YMDGTMSQV [Tyrosinase (“YMD”), reference compound]	204

Same assay, conditions: read-out: Epitope alone: Affinity for hsp70

Substance	Kd [µM]
VIYQYMDDL [reference compound]	91
VLDVGDAYFSV [reference compound]	110
YLEPGPVTV [reference compound]	71
ILKEPVHGV [reference compound]	83
SVYDFFVWL [reference compound]	81
IMDQVPFSV [Gp100 (“IMD”), reference compound]	2570
GLYDGMEHL [reference compound]	48
ALKHRAYEL [reference compound]	97
AFHHVAREL [reference compound]	84
YMDGTMSQV [Tyrosinase (“YMD”), reference compound]	209
AIIRILQQL [reference compound]	93
KASEKIFYV [reference compound]	57
SLFNTVATL [reference compound]	35

Same assay, conditions: read-out: Hybrid antigen comprising epitope: Affinity for hsp70

Substance	Kd [µM]
ALKHRAYELGSGNLLRLTGW	1.1
SLLMWITQVGSGNLLRLTGW	2.2
YMDGTMSQVgsgNLLRLTGW	1.8
ILKEPVHGVGSGNLLRLTGW	1.2
VIYQYMDDLGSGNLLRLTGW	1.7
NLLRLTGWGSGRGYVYQGL	1.4
AFHHVARELGSGNLLRLTGW	2.1
IMDQVPFSVgsgNLLRLTGW (IMDQVPFSVGSGNLLRLTGW; not fully specified; printed as IMDQVPFSVgsgNLLRLTGW)	0.9
KASEKIFYVGSGNLLRLTGW	1.4
YLEPGPVTVGSGNLLRLTGW	2
AIIRILQQLGSGNLLRLTGW	0.6
GLYDGMEHLGSGNLLRLTGW	1.1
SLFNTVATLGSGNLLRLTGW	1.9
SVYDFFVWLGSGNLLRLTGW	2.9
NLLRLTGWGSGSHNFEKL	1.6
VLDVGDAYFSVGSGNLLRLTGW	2
SLYNTVATLGSGNLLRLTGW	1.8

Same assay, conditions: read-out: Kd, heat shock protein-binding domain: FYQLALTW; pH 8; read-out: Kd, heat shock protein-binding domain: […]

Substance	Kd [µM]
FYQLALTW	5.9
SIINFEKLgsgFYQLALTW (SIINFEKLGSGFYQLALTW; not fully specified; printed as SIINFEKLgsgFYQLALTW) [OVA + FYQLALTW]	1.43

Same assay, conditions: read-out: Kd, heat shock protein-binding domain: HWDFAWPW; pH 8; read-out: Kd, heat shock protein-binding domain: […]

Substance	Kd [µM]
TLGIVCPIgsgHWDFAWPW (TLGIVCPIGSGHWDFAWPW) [HPV16 E7 (86-93) + HWDFAWPW]	9.1
YMLDLQPETTgsgHWDFAWPW (YMLDLQPETTGSGHWDFAWPW) [HPV16 E7 (11-20) + HWDFAWPW]	27
HWDFAWPW	120
HWDFAWPWgsgYMDGTMSQV (HWDFAWPWGSGYMDGTMSQV; not fully specified; printed as HWDFAWPWgsgYMDGTMSQV)	29
HWDFAWPWgsgSIINFEKL (HWDFAWPWGSGSIINFEKL; not fully specified; printed as HWDFAWPWgsgSIINFEKL)	4.3
ALFDIESKVgsgHWDFAWPW (ALFDIESKVGSGHWDFAWPW; not fully specified; printed as ALFDIESKVgsgHWDFAWPW) [PSMA P2 + HWDFAWPW]	22
SIINFEKLgsgHWDFAWPW (SIINFEKLGSGHWDFAWPW; not fully specified; printed as SIINFEKLgsgHWDFAWPW) [OVA + HWDFAWPW]	40
YMDGTMSQVgsgHWDFAWPW (YMDGTMSQVGSGHWDFAWPW)	24
IMDQVPFSVgsgHWDFAWPW (IMDQVPFSVGSGHWDFAWPW; not fully specified; printed as IMDQVPFSVgsgHWDFAWPW)	155

Same assay, conditions: read-out: Kd, heat shock protein-binding domain: NLLRLTGW; pH 8; read-out: Kd, heat shock protein-binding domain: […]

Substance	Kd [µM]
YMDGTMSQVgsgNLLRLTGW	2.65
PSMA P2 + NLLRLTGW	1.3
NLLRLTGW	1.85
IMDQVPFSVgsgNLLRLTGW (IMDQVPFSVGSGNLLRLTGW; not fully specified; printed as IMDQVPFSVgsgNLLRLTGW)	3.1
TLGIVCPIgsgNLLRLTGW [HPV16 E7 (86-93) + NLLRLTGW]	5.2
SIINFEKLgsgNLLRLTGW (SIINFEKLGSGNLLRLTGW; not fully specified; printed as SIINFEKLgsgNLLRLTGW) [OVA + NLLRLTGW]	1.2

Same assay, conditions: read-out: Kd, heat shock protein-binding domain: RKLFFNLRW; pH 8; read-out: Kd, heat shock protein-binding domain: […]

Substance	Kd [µM]
SIINFEKLgsgRKLFFNLRW (SIINFEKLGSGRKLFFNLRW; not fully specified; printed as SIINFEKLgsgRKLFFNLRW) [OVA + RKLFFNLRW]	7
RKLFFNLRW	15
